Experimental data as given in patent US20230130403A1, “METHODS OF TREATMENT WITH S1P RECEPTOR MODULATORS” (PRIOTHERA SAS, priority 2021, published 2023).

Tests used:
mice = assay: Repeat-dose toxicity studies in mice; conditions: mouse, in vivo
Procedure: (§1) The kidney was a target organ of toxicity in mice only and only in a 2-week study at doses ≥45 mg/kg.
(§2) Kidney impairment was most likely the primary cause of death/moribundity seen in this study.

[1] = Repeat-dose toxicity studies in mice; conditions: in vivo; 13-week mouse study, 20 mg/kg; read-out: systemic exposure (AUC0-24 h)
Procedure: as §1, §2

[2] = tested on: bronchoconstrictor response induced by challenge agents; assay: Safety pharmacology: bronchoconstrictor response in rats; type: in vivo, rat; conditions: rats pre-treated with 3 mg/kg
From the text: (§3) Based on the available in vitro and in vivo data, except for the potential to cause a negative chronotropic effect and some mild increase in blood pressure, there is no indication that KRP203 would cause arrhythmia or QT prolongation in man.

[3] = tested on: hematological cytotoxicity; assay: Hematological cytotoxicity in vitro; type: cell-based; conditions: therapeutic concentrations in vitro
From the text: (§4) KRP203 reduces lymphocyte counts in peripheral blood by more than 80%.

dogs = assay: Repeat-dose toxicity studies in dogs; type: in vivo
From the text: Transitory activation of phagocytic cells and increased secretion of soluble markers by these cells is considered a main contributing factor to smooth muscle hypertrophy/hyperplasia.

[4] = tested on: neuropharmacological effects; assay: Safety pharmacology: neuropharmacological effects in rats; type: in vivo, rat; conditions: doses up to 2000 mg/kg, except some piloerection
rats and rabbits = assay: Reproductive toxicity studies in rats and rabbits; type: in vivo
[5] = tested on: healthy volunteers and patients (ulcerative colitis, subacute cutaneous lupus erythematosus, Crohn's disease); assay: Placebo-controlled clinical trials of KRP203 in healthy volunteers and patients; type: in vivo, human
Procedure: The clinical experience with mocravimod includes single doses up to 40 mg in healthy volunteers and multiple doses up to 3 mg/day in healthy volunteers and patients. […] In the phase […] study, mocravimod was administered for up to around 3 months in patients with several different hematologic malignancies receiving allogeneic HSCT. […] However, patient numbers were low and efficacy results warrant more data in a more homogeneous patient population. To gather more data on both doses, this phase IIb study will investigate mocravimod at two different dose levels, a daily dose of 1 mg as well as of 3 mg.

bacterial mutation = assay: In vitro genotoxicity: bacterial mutation; type: cell-based
[6] = tested on: contact sensitizing potential; assay: Contact sensitization; conditions: in vivo
[7] = dog, in vivo
chromosome aberration = assay: In vitro genotoxicity: chromosome aberration; type: cell-based
micronucleus = assay: In vivo micronucleus study in mice; parameters: species or system mouse
[8] = rat, in vivo
[9] = tested on: human cytochrome P450 isoenzymes; assay: Inhibition of cytochrome P450 isoenzymes in vitro; type: in vitro ADME
Procedure: The in vivo ratio of phosphorylated KRP203 to KRP203 in plasma was up to 45 in rat. As the metabolic activities on KRP203 in human blood and hepatocytes were lower than those of other species, the metabolic clearance of KRP203 in man is expected be lower than that in rat and dog. […] KRP230 formed low amounts of covalent drug-protein adducts in human hepatocytes in vitro. Due to the low levels detected ([…] at 3 hours) in-vitro adduct formation is unlikely to be associated with clinical relevant findings at low dose levels (e.g. below 10 mg).
The weak inhibitory effect of ciclosporin on hepatic CYP3A4 is unlikely to relevantly impact the PK of KRP203.

rabbit skin = assay: Skin irritation; type: in vivo
QT prolongation = QT prolongation in telemetered dogs; type: in vivo, dog
From the text: as §3

[10] = tested on: pulmonary endothelial barrier; assay: Pulmonary endothelial barrier after single oral dose; type: in vivo
From the text: as §3

liver = assay: Genomic profiling of the liver in a 2-week exploratory toxicity study in rats; type: in vivo, rat
[11] = tested on: allogeneic-stimulated T cell proliferation; assay: Mixed lymphocyte reactions (MLR); type: cell-based; conditions: therapeutic concentrations in vitro
From the text: as §4

[12] = tested on: respiratory function in dogs; assay: Safety pharmacology: respiratory function in dogs; type: in vivo, dog; conditions: doses up to 20 mg/kg (highest dose tested)
From the text: as §3

SMILES: NC(CO)(CO)CCc1ccc(Sc2cccc(OCc3ccccc3)c2)cc1Cl [KRP203, 2-amino-2-[4-(3-benzyloxyphenylthio)-2-chlorophenyl] ethyl-propane-1,3-diol]
- doses with kidney toxicity (mice; both, 2 weeks): ≥ 45 mg/kg
- doses with mortality (mice; both, 2 weeks): ≥ 45 mg/kg/day
- no kidney changes up to highest dose level (mice; 13 weeks): ≤ 20 mg/kg
- AUC0-24 [1]: ~7250 ng·h/mL
- effects on bronchoconstrictor response induced by challenge agents [2]: no significant effects
- exhibits hematological cytotoxicity [3]: does not
- gastro-intestinal findings (dogs; 26- and 52-week dog toxicity studies): gastro-intestinal tract disturbance with soft/mucoid stools and diarrhea occurred in males only at the high dose level
- no mortality up to daily dose (dogs; dogs, up to 52-week): ≤ 15 mg/kg
- neuropharmacological effects [4]: no adverse neuropharmacological effects
- no effects on male fertility up to highest dose (rats and rabbits; in vivo): ≤ 20 mg/kg
- NOAEL for embryo lethality and malformations (rats and rabbits; rat study): no NOAEL
- reproductive toxicity (rats and rabbits; rats and rabbits): teratogenic potential and effects on the reproductive tract, resulting in embryo lethality and malformations at low doses
- tolerability [5]: well tolerated
- genotoxic potential (bacterial mutation): no evidence for a genotoxic potential
- contact sensitizing potential [6]: does not have a contact sensitizing potential
- accumulation after repeated dosing (4 and 13 weeks) [7]: no evidence of accumulation
- genotoxic potential (chromosome aberration): no evidence for a genotoxic potential
- genotoxic potential (micronucleus): no evidence for a genotoxic potential
- increase of exposure at the end of the 13-week treatment compared to single dose ([8]; both, 13 weeks): 2-5 fold
- proportionality between exposure and dose [8]: apparent proportionality between exposure and dose
- effect on cytochromes P450 enzymes and transporters [9]: lack of effect
- potential in inhibiting the activity of human cytochrome P450 isoenzymes ([9]; in vitro tests): did not show relevant potential
- skin irritation (rabbit skin): not irritating
- QT prolongation (QT prolongation): No indication for QT prolongation
- effect on pulmonary endothelial barrier [10]: mildly decreased pulmonary endothelial barrier
- hepatotoxicity-related changes in genomic profiling of the liver (liver): did not indicate any hepatotoxicity-related changes
- inhibition of allogeneic-stimulated T cell proliferation [11]: does not inhibit
- effects on respiratory function [12]: no significant effects
